Experimental data as given in US7569541B2 (priority 2003, dated 2009).

System: P. falciparum
Details: in vivo

Asn-Pro-Asn-Ala-Asn-(Apro-Asn-Ala-Asn-Pro-Asn-Ala-Asn-Pro-Asn-Glu)cyclo-Asn-Pro-Asn-Ala attached to a PE moiety [UK39]
Antigenicity: excellent
